Laboratory results taken from Sander's compilation of Henry's law constants (doi:10.1002/etc.5620090606).

Assay: Henry solubility constant Hcp at 298.15 K (mol/(m3 Pa))
Conditions: reference: Fendinger and Glotfelty (1990)

Row | Structure (SMILES) | Henry solubility constant Hcp
1 | Clc1ccc(-c2ccc(Cl)cc2)cc1 [4,4'-dichlorobiphenyl] | 0.1
2 | C1=Cc2cccc3cccc1c23 [acenaphthylene] | 0.088
3 | CCOP(=S)(OCC)Oc1ccc([N+](=O)[O-])cc1 [parathion] | 120
4 | Cc1ccc2ccccc2c1 [2-methylnaphthalene] | 0.031
5 | CCC(CC)Nc1c([N+](=O)[O-])cc(C)c(C)c1[N+](=O)[O-] [penoxaline] | 12
6 | Clc1ccccc1-c1ccccc1Cl [2,2'-dichlorobiphenyl] | 0.04
7 | CCOP(=S)(OCC)Oc1nc(Cl)c(Cl)cc1Cl [chlorpyrifos] | 2.4
8 | c1ccc2c(c1)Cc1ccccc1-2 [2,3-benzindene] | 0.16
9 | c1ccc2ccccc2c1 [naphthalene] | 0.013
10 | c1cc2c3c(cccc3c1)CC2 [acenaphthene] | 0.16
11 | CCOC(=O)CC(SP(=S)(OC)OC)C(=O)OCC (stereo unspecified) [malathion] | 2000
12 | COP(=S)(OC)Oc1ccc([N+](=O)[O-])cc1 [methylparathion] | 160
13 | c1ccc2c(c1)ccc1ccccc12 [phenanthrene] | 0.42
14 | Cc1cccc2ccccc12 [1-methylnaphthalene] | 0.016
15 | c1ccc(-c2ccccc2)cc1 [biphenyl] | 0.051
16 | c1ccc2cc3ccccc3cc2c1 [anthracene] | 0.51
